Experiment [1] can be described thus: Clinical study of methylphenidate delivery profiles in school children (SKAMP, CLAM, mathematics test, activity monitor). Type of experiment: in vivo, human. The conditions noted are these: 36 school children. The method, then:
(§1) The CLAM Test is a behavior rating that indicates social conformity or rebellion as developed by Conners, Lonez, and Milch and SKAMP is a rating that also measures behavior as developed by Swanson and reported in Psychopharmacological Bulletin, Vol. 21, pp. 887-890 (1985).
(§2) The effect measurements in this study were: (1) observer ratings on SKAMP scale (during classroom time) and (2) performance on the computerized mathematics test. Each child was tested on the mathematics test before the study began, and based on this pre-test during the study, a mathematics test appropriate for each child's ability was given. The morning and evening parent CLAM assessments were used to identify unusual behaviors. The evening parent CLAM was used to determine the presence of treatment effects in the evening hours, particularly treatment effects on the time the child fell asleep, and whether the child's sleep was interrupted. All of the children also wore an activity monitor (Actigraph) which records the movements of the child throughout the day. The activity (number of movements per minute) is recorded electronically and modeled as a function of the drug effect.
The immediate release tablet and the sustained-release dosage form were compared to a sustained-release dosage form that administered methylphenidate in an ascending profile. The sustained-release ascending profile corresponds to administering 4.2 mg at zero hour, 1.1 mg at 1.5 hours, 1.1 mg at 2 hours, 1.2 mg at 2.5 hours, 1.2 mg at 3.0 hours, 1.3 mg at 3.5 hours, 1.3 mg at 4 hours, 1.5 mg at 4.5 hours, 1.5 mg at 5 hours, 1.8 mg at 5.5 hours, 1.8 mg at 6 hours, and 2.0 mg at 6.5 hours, to produce the sustained-ascending release dotted line profile seen in Figure 2.
The accompanying figures present the results of the above-described study. […]

The nature of experiment [2]: Clinical study of sustained-ascending versus three-times-a-day immediate release methylphenidate (behavior, combined attention). Format: in vivo, human. The protocol: as §1, §2
The results of a clinical study that comprises administering methylphenidate according to two distinct delivery programs are reported in this example. In the study, a sustained-ascending profile corresponds to administering methylphenidate as follows: 8 mg at zero hours, 1.4 mg at 1.5 hours, 1.4 mg at 2.0 hours, 1.7 mg at 2.5 hours, 1.7 mg at 3.0 hours, 2.0 mg at 3.5 hours, 2.0 mg at 4.0 hours, 2.2 mg at 4.5 hours, 2.2 mg at 5.0 hours, 2.2 mg at 5.5 hours, 2.2 mg at 6.0 hours, 2.4 mg at 6.5 hours, 2.4 mg at 7.0 hours, 2.6 mg at 7.5 hours, and 1.9 mg at 8.0 hours. The methylphenidate was administered in overcoated capsules comprising a total of 36 mg of methylphenidate with 22% in the exterior overcoat. The ascending dose was administered with the first dose at 0730 followed by ascending doses every 30 minutes until 1530 to produce the intended ascending plasma concentration. […]

The structures appear in SMILES notation.

In the case of `COC(=O)C(c1ccccc1)C1CCCCN1` (stereo not drawn) [methylphenidate], the “therapeutic effect and tolerance” value in experiment [1] (controlled-sustained ascending profile (4.2 mg at zero hour rising to 2.0 mg at 6.5 hours)) was “the desired therapeutic effect without tolerance”. Moreover, in experiment [1] (sustained-nonascending dose, 20 mg methylphenidate (8.3 mg at zero hour then 0.9 mg every 0.5 h to 7.5 hours)), the “clinical effect (activity, mathematical scores, inappropriate behavior)” value is “a decrease in activity, higher mathematical scores and a lessening of inappropriate behavior”. In experiment [1] (sustained-nonascending dose, 20 mg methylphenidate), the acute tolerance entry is recorded as “development of acute tolerance”. In addition, in experiment [2] (sustained ascending program, 36 mg total, 0730 to 1530, 32 children with attention deficient hyperactivity disorder, Figure 7), the “behavior, acquired tolerance” value was “absence of acquired tolerance”. For the same compound, in experiment [2] (sustained-ascending release, 36 mg total, 32 children, Figure 8), the “combined attention parameter, developed tolerance” value is recorded as “essentially free of developed tolerance”. Further, in experiment [2] (three daily immediate release, 10 mg at 0730, 1130 and 1530, 32 children, Figure 8), the “combined attention parameter, acquired tolerance” value is recorded as “with acquired tolerance”.

For the origin of these results see patent publication EP1690531A2, “Dosage form and method for administering drug” (ALZA CORPORATION, priority 1996, dated 1998).
